Laboratory results taken from US8648116B2, “Derivatives of N-(arylamino) sulfonamides including polymorphs as inhibitors of MEK as well as compositions, methods of use and methods for preparing the same” (Ardea Biosciences, Inc., priority 2005, dated 2014).
Where “and” joins values, the source holds several entries; their conditions need not be identical. Equal values may be shown once.

Test system: phosphorylated ERK in MDA-MB-231 breast cancer cells
Test: Generation of EC50 data: Western blotting for phosphorylated ERK in EGF-stimulated cells
Type: cell-based
Conditions: EC50 class
Description: Effects of compounds in the cell were determined by Western blotting for phosphorylated ERK. MDA-MB-231 breast cancer cells were plated in a 48 well plate at 20,000 cells per well and grown in a 37° humidified CO2 incubator. The following day, the growth media (DMEM+10% fetal bovine serum) was removed and replaced with starve media (DMEM+0.1% fetal bovine serum). Cells were incubated in the starve media for sixteen hours and then treated with a range of compound concentrations for thirty minutes. After incubation with compound, cells were stimulated with 100 ng/ml EGF for five minutes. The cells were then lysed and analyzed by Western blot using a monoclonal antibody raised to phosphorylated ERK. The signal was amplified using a secondary antibody conjugated to a near-IR dye and detected on a Licor Odyssey scanner.

Row | SMILES | EC50 [nM]
1 | COc1cc(F)c(F)c(Nc2ccc(I)cc2F)c1NS(=O)(=O)C1(CC(O)CO)CC1 (racemic) [Eg. 97 (Racemic), N-(3,4-difluoro-2-(2-fluoro-4-iodophenylamino)-6-methoxyphenyl)-1-(2,3-dihydroxypropyl)cyclopropane-1-sulfonamide] | < 2
2 | COc1cc(F)c(F)c(Nc2ccc(I)cc2F)c1NS(=O)(=O)C1(C[C@H](O)CO)CC1 [Eg. 98 (S isomer)] | < 2
3 | COc1cc(F)c(F)c(Nc2ccc(I)cc2F)c1NS(=O)(=O)C1(C[C@@H](O)CO)CC1 [Eg. 99 (R isomer), N—(R)-(3,4-difluoro-2-(2-fluoro-4-iodophenylamino)-6-methoxyphenyl)-1-(2,3-dihydroxypropyl)cyclopropane-1-sulfonamide] | 2 to 15

Same assay, conditions: Homo sapiens; EC50 classes per legend (pERK, MDA-MB-231 cells); classes D and F also cite IC50

Row | SMILES | EC50 [nM]
4 | O=S(=O)(Nc1ccc(F)c(F)c1Nc1ccc(I)cc1F)C1(CC(O)CO)CC1 (racemic) [Example 1018] | < 2
5 | COc1cc(F)c(F)c(Nc2ccc(I)cc2F)c1NS(=O)(=O)C1(CC(O)CO)CC1 (racemic) [Example 1019] | < 2
6 | O=S(=O)(Nc1c(F)cc(F)c(F)c1Nc1ccc(I)cc1F)C1(CC(O)CO)CC1 (racemic) [Example 1020] | < 2
7 | CS(=O)(=O)Nc1ccc(F)c(F)c1Nc1ccc(I)cc1F [Example 1000] | < 2
8 | O=S(=O)(Nc1ccc(F)c(F)c1Nc1ccc(I)cc1F)C1CC1 [Example 1001] | < 2
9 | CC(C)S(=O)(=O)Nc1ccc(F)c(F)c1Nc1ccc(I)cc1F [Example 1002] | 2 to 15
10 | CCCCS(=O)(=O)Nc1ccc(F)c(F)c1Nc1ccc(I)cc1F [Example 1003] | 15 to 100
11 | O=S(=O)(Nc1c(F)cc(F)c(F)c1Nc1ccc(I)cc1F)C1CC1 [Example 1004] | 15 to 100
12 | O=S(=O)(Nc1ccc(F)c(F)c1Nc1ccc(I)cc1F)c1cccs1 [Example 1005] | 15 to 100
13 | O=S(=O)(Nc1ccc(F)c(F)c1Nc1ccc(I)cc1F)c1ccco1 [Example 1006] | 15 to 100
14 | O=S(=O)(Nc1ccc(F)c(F)c1Nc1ccc(I)cc1F)C1CCCC1 [Example 1007] | 15 to 100
15 | O=S(=O)(Nc1ccc(F)c(F)c1Nc1ccc(I)cc1F)C1CCCCC1 [Example 1008] | 15 to 100
16 | CC(C)(C)S(=O)(=O)Nc1ccc(F)c(F)c1Nc1ccc(I)cc1F [Example 1009] | 15 to 100
17 | COc1cc(F)c(F)c(Nc2ccc(C)cc2C)c1NS(C)(=O)=O [Example 1010] | < 2
18 | Cc1ccc(S(=O)(=O)Nc2ccc(F)c(F)c2Nc2ccc(I)cc2F)s1 [Example 1011] | 15 to 100
19 | CC1(S(=O)(=O)Nc2ccc(F)c(F)c2Nc2ccc(I)cc2F)CC1 [Example 1012] | 2 to 15

Row | SMILES | EC50 [nM]
20 | COc1cc(F)c(F)c(Nc2ccc(I)cc2F)c1NS(=O)(=O)C1CC1 [Example 1013] | 2 to 15
21 | O=S(=O)(Nc1ccc(F)c(F)c1Nc1ccc(I)cc1F)c1ccccc1 [Example 1014] | 15 to 100
22 | O=S(=O)(Nc1ccc(F)c(F)c1Nc1ccc(I)cc1F)c1ccccc1F [Example 1015] | > 100
23 | O=S(=O)(Nc1ccc(F)c(F)c1Nc1ccc(I)cc1F)c1ccsc1 [Example 1016] | 15 to 100
24 | Cc1cc(I)ccc1Nc1c(NS(=O)(=O)C2CC2)ccc(F)c1F [Example 1017] | 2 to 15
25 | COc1cc(F)c(F)c(Nc2ccc(I)cc2F)c1NS(=O)(=O)C1(C[C@H](O)CO)CC1 [Example 1021] | < 2
26 | COc1cc(F)c(F)c(Nc2ccc(I)cc2F)c1NS(=O)(=O)C1(C[C@@H](O)CO)CC1 [Example 1022] | 2 to 15
27 | O=S(=O)(Nc1c(F)cc(F)c(F)c1Nc1ccc(I)cc1F)C1(C[C@H](O)CO)CC1 [Example 1023] | 2 to 15
28 | O=S(=O)(Nc1c(F)cc(F)c(F)c1Nc1ccc(I)cc1F)C1(C[C@@H](O)CO)CC1 [Example 1024] | 2 to 15
29 | COc1cc(F)c(F)c(Nc2ccc(I)cc2F)c1NS(=O)(=O)C1CCC1 [Example 1025] | 2 to 15
30 | COc1cc(F)c(F)c(Nc2ccc(I)cc2F)c1NS(=O)(=O)C1(CCO)CC1 [Example 1026] | < 2
31 | O=S(=O)(Nc1ccc(F)c(F)c1Nc1ccc(I)cc1F)C1(CCO)CC1 [Example 1027] | < 2
32 | COc1cc(F)c(F)c(Nc2ccc(I)cc2F)c1NS(=O)(=O)C1(CC(CO)CO)CC1 [Example 1028] | < 2
33 | CCc1cc(F)c(F)c(Nc2ccc(I)cc2F)c1NS(=O)(=O)C1(CC(O)CO)CC1 (stereo not shown) [Example 1029] | 15 to 100
34 | COCCOc1cc(F)c(F)c(Nc2ccc(I)cc2F)c1NS(=O)(=O)C1(CC(O)CO)CC1 (stereo not shown) [Example 1030] | 15 to 100

Test system: MDA pERK
Test: MDA pERK ELISA
Type: cell-based
Conditions: not given

Row | SMILES | EC50 [nM]
35 | O=S(=O)(Nc1ccc(F)c(F)c1Nc1ccc(-c2cn[nH]c2)cc1F)C1CC1 [Example 0497618] | > 200
36 | Cn1cc(-c2ccc(Nc3c(NS(=O)(=O)C4CC4)ccc(F)c3F)c(F)c2)cn1 [Example 0497620] | > 200
37 | O=S(=O)(Nc1ccc(F)c(F)c1Nc1ccc(-c2cc[nH]n2)cc1F)C1CC1 [Example 0497654] | 100 to 200
38 | O=S(=O)(Nc1ccc(F)c(F)c1Nc1ccc(-c2ccncc2)cc1F)C1CC1 [Example 0497688] | > 200
39 | O=S(=O)(Nc1ccc(F)c(F)c1Nc1ccc(-c2cccnc2)cc1F)C1CC1 [Example 0497689] | > 200

Test system: orthotopic Hep3B2.1-7 human hepatic carcinoma
Test: Growth response of orthotopic Hep3B tumors in nude mice
Type: in vivo, BALB/c nu/nu mice
Conditions: 5FU 75 mg/kg i.v. Day 0, 7 and 14
Description: Female BALB/c nu/nu mice (University of Adelaide, Waite Campus, SA, Australia), aged 10-14 weeks, with a body weight range: of 19.1-29.94 g (mean 22.95 g) were used for the study. The mice were divided into 6 Study groups (4 treatment groups and 2 control groups) as follows: • Number of Mice per Group: 10 in Groups 1 to 5 inclusive • 15 in ‘Take-Rate’ Control Group (Group 6)
Hep3B human hepatic carcinoma cells (Passage 2 from working stock VP-Stock 353) were cultured in RPMI1640 cell culture medium, which was supplemented with 10% FBS and penicillin-streptomycin (501 U/mL final concentration). The cells were harvested by trypsinisation, washed twice in HBSS and counted. The cells were then resuspended in HBSS:Matrigel (1:1, v/v) and adjusted to a final volume containing 1×10^8 cells/mL. Prior to inoculation, the incision site was liberally swabbed with alcohol and an incision made through the abdominal wall to expose the liver. The needle was introduced through the surface of the liver where 10 μL of cells (1×10^6 cells) were discharged. The needle was held in this position for approximately 30 seconds to allow the Matrigel® to polymerize in order to avoid leakage of tumor cells into the abdominal cavity.
Treatment commenced 14 days post-inoculation. On Day 7 of the study (21 days post-inoculation), all mice from the ‘Take-Rate’ control group were culled and the livers visually assessed for the presence of tumors.
A stock solution was prepared weekly and stored at 4° C. Dosing solutions were prepared on each day of administration. […] The compound was administered at doses of 2, 10 and 50 mg/kg.
Liver and tumor wet weight were measured when each were excised post-mortem on the termination day of the study. At the termination of the study, livers were excised from all mice in each study group and weighed. The number of visible tumors, if present, was counted. These tumors were removed from the liver and weighed.
A One-Way Analysis of Variance (ANOVA) (All Pairwise Multiple Comparison Procedure and Multiple Comparison versus Control Group) was performed on liver weight and tumor weight data at the end of the study. […] The same statistical analyses were performed on the data for the tumor-bearing mice in the study.

Row | SMILES | No. of Mice with Tumors (out of 10)
40 | O=c1[nH]cc(F)c(=O)[nH]1 [5-Fluorouracil, reference compound] | 4

Same assay, conditions: 5FU 75 mg/kg i.v. Day 0, 7 and 14, tumor-bearing mice

Row | SMILES | Average Liver Weight [g] | Average Tumor Weight [g]
41 | O=c1[nH]cc(F)c(=O)[nH]1 [5-Fluorouracil, reference compound] | 1.217 | 0.143

Same assay, conditions: tumor-bearing mice, 75 mg/kg i.v. once per week

Row | SMILES | average weight of the tumors vs Vehicle Control
42 | O=c1[nH]cc(F)c(=O)[nH]1 [5-Fluorouracil, reference compound] | significantly different

Same assay, conditions: tumor-bearing mice, 75 mg/kg i.v. once per week; p<0.05

Row | SMILES | average weight of the liver vs Vehicle Control
43 | O=c1[nH]cc(F)c(=O)[nH]1 [5-Fluorouracil, reference compound] | significantly different

Test system: orthotopic HT-29 human colorectal adenocarcinoma
Test: Growth response of orthotopic HT-29 colon tumors in nude mice
Type: in vivo, BALB/c nu/nu mice
Conditions: 75 mg/kg i.v. once per week
Description: Female BALB/c nu/nu mice (University of Adelaide, Waite Campus, SA, Australia), aged 7-12 weeks, with a body weight range: of 16.58-25.39 g (mean 21.52 g) were used for the study. The mice were divided into 6 Study groups (4 treatment groups and 2 control groups) as follows: • Number of Mice per Group: 10 in Groups 1 to 5 inclusive • 9 in ‘Take-Rate’ Control Group (Group 6)
HT-29 human colorectal adenocarcinoma cells (Passage 4 from working stock VP-Stock 325) were cultured in RPMI1640 cell culture medium, which was supplemented with 10% FBS and penicillin-streptomycin (501 U/mL final concentration). The cells were harvested by trypsinisation, washed twice in HBSS and counted. The cells were then resuspended in HESS and adjusted to a final volume containing 2×10^8 cells/mL. Prior to inoculation, the incision site was liberally swabbed with alcohol and an incision made through the abdominal wall to expose the caecum wall. The needle was introduced through the surface of the caecum wall where 5 μL of cells (1×10^6 cells) were discharged.
A stock solution was prepared weekly and stored at 4° C. Dosing solutions were prepared on each day of administration.
Caecum and tumor wet weight were measured when each were excised post-mortem on the termination day of the study. At the termination of the study, the caecum was excised from all mice in each study group and weighed with the tumors intact. The tumors were then excised from the caecum and weighed.
A two-sample t-test was used to determine the significance in body weight change within a treatment group between Day 0 and the termination day of the study. […] In these groups, a two-sample t-test was used to determine the significance in body weight change within a treatment group between Day 0 and the final treatment day of the study, and between the last treatment day and the termination day of the study.
A One-Way Analysis of Variance (ANOVA) (All Pairwise Multiple Comparison Procedure and Multiple Comparison versus Control Group) was performed on the caecum weight and tumor weight data at the end of the study.

Row | SMILES | weight of the caecum and HT-29 tumors
44 | O=c1[nH]cc(F)c(=O)[nH]1 [5-Fluorouracil, reference compound] | no effect

Same assay, conditions: 5FU 75 mg/kg, individual animals; listed as 5FU

Row | SMILES | Caecum Weight | Tumour Weight
45 | O=c1[nH]cc(F)c(=O)[nH]1 [5-Fluorouracil, reference compound] | 0.355 g and 0.199 g and 0.360 g and 0.284 g and 0.421 g and 0.706 g and 0.415 g and 0.327 g and 0.237 g and 0.377 g | 0.245 g and 0.001 g and 0.000 g (3×) and 0.010 g and 0.329 g and 0.130 g and 0.079 g and 0.003 g

Same assay, conditions: 5FU 75 mg/kg, mice surviving to final day

Row | SMILES | Average Caecum Weight [g] | Average Tumour Weight [g]
46 | O=c1[nH]cc(F)c(=O)[nH]1 [5-Fluorouracil, reference compound] | 0.391 | 0.069
